According to patent publication US8754234B2, “Chiral 2-(benzylsulfinyl)thiazole derivatives and 2-[(1H-pyrazol-4-ylmethyl)sulfinyl]thiazole derivatives, processes for their preparation and their use as herbicides and plant growth regulators” (Bayer Cropscience AG, priority 2007, dated 2014):

Columns and labels:
Format in all cases: in vivo
[1] = test system: Lolium multiflorum (Italian ryegrass); assay: Pre-emergence herbicidal effect, Italian ryegrass; settings: after about 3 weeks
Excerpt: (§1) Seeds of monocotyledonous or dicotyledonous weed plants or crop plants are placed in sandy loam in wood-fiber pots and covered with soil. The compounds according to the invention, formulated in the form of wettable powders (WP), are then applied as aqueous suspension at a water application rate of 600 l/ha (converted) with the addition of 0.2% of wetting agent to the surface of the covering soil. After the treatment, the pots are placed in a greenhouse and kept under good growth conditions for the test plants. After about 3 weeks, the effect of the preparations is scored visually in comparison with untreated controls (herbicidal effect in percent (%): 100% activity=the plants have died, 0% activity=like control plants).

[2] = test system: Setaria viridis (green foxtail); assay: Pre-emergence herbicidal effect, green foxtail; settings: after about 3 weeks
Excerpt: as §1

[3] = test system: Brassica napus (winter rape); assay: Pre-emergence crop plant compatibility, winter rape; settings: after about 3 weeks
Excerpt: as §1

[4] = test system: Alopecurus myosuroides (black-grass); assay: Pre-emergence herbicidal effect, black-grass; settings: after about 3 weeks
Excerpt: as §1

[5] = test system: Triticum aestivum (summer wheat); assay: Pre-emergence crop plant compatibility, summer wheat; settings: scored visually after about 3 weeks
Excerpt: as §1

[6] = test system: Echinochloa crus-galli (barnyard grass); assay: Pre-emergence herbicidal effect, barnyard grass; settings: after about 3 weeks
Excerpt: as §1

[7] = test system: Viola tricolor (wild pansy); assay: Pre-emergence herbicidal effect, wild pansy; settings: after about 3 weeks
Excerpt: as §1

[8] = test system: Avena fatua, Stellaria media, Echinochloa crus galli, Lolium multiflorum, Setaria viridis, Abutilon theophrasti, Amaranthus retroflexus, Viola tricolor …; assay: Pre-emergence herbicidal effect, harmful plants; settings: pre-emergence method, application rate of 0.32 kg and less of active substance per hectare
Excerpt: as §1

[9] = test system: Avena fatua, Echinochloa crus galli, Lolium multiflorum, Setaria viridis and Alopecurus myosuroides; assay: Post-emergence herbicidal effect, harmful plants; settings: post-emergence method, application rate of 0.32 kg and less of active substance per hectare
Experimental: (§2) Seeds of monocotyledonous and dicotyledonous weed and crop plants are placed in sandy loam in wood fibre pots, covered with soil and cultivated in a greenhouse under good growth conditions. 2 to 3 weeks after sowing, the test plants are treated at the one-leaf stage. The compounds according to the invention, formulated in the form of wettable powders (WP), are then applied as aqueous suspension at a water application rate of 600 l/ha (converted) with the addition of 0.2% of wetting agent to the green parts of the plants. After the test plants have been kept in the greenhouse under optimum growth conditions for about 3 weeks, the activity of the preparations is rated visually in comparison to untreated controls (herbicidal activity in percent (%): 100% activity=the plants have died, 0% activity=like control plants).

[10] = test system: Zea mays (corn); assay: Post-emergence crop plant compatibility, corn; settings: after about 3 weeks
Experimental: as §2

[11] = test system: Avena fatua; assay: Post-emergence herbicidal effect, Avena fatua; settings: after about 3 weeks
Experimental: as §2

[12] = test system: Lolium multiflorum (Italian ryegrass); assay: Post-emergence herbicidal effect, Italian ryegrass; settings: after about 3 weeks
Experimental: as §2

[13] = test system: Setaria viridis (green foxtail); assay: Post-emergence herbicidal effect, green foxtail; settings: after about 3 weeks
Experimental: as §2

[14] = test system: Polygunum convolvulus; assay: Post-emergence herbicidal effect, Polygunum convolvulus; settings: after about 3 weeks
Experimental: as §2

[15] = test system: Stellaria media; assay: Post-emergence herbicidal effect, Stellaria media; settings: after about 3 weeks
Experimental: as §2

[16] = 20 g of active compound/ha, formula (Ib) table
[17] = 80 g of active compound/ha, formula (Ib) table
[18] = 20 g of active compound/ha, formula (Ia) table
[19] = 80 g of active compound/ha, formula (Ia) table

Cn1nc(C(F)(F)F)c(C[S+]([O-])c2ncc(Br)s2)c1OC(F)F (racemic) [Racemate of 2637 (S config.) and 3725 (R config.), 5-bromo-2-({[5-(difluoromethoxy)-1-methyl-3-(trifluoromethyl)-1H-pyrazol-4-yl]methyl}sulfinyl)-1,3-thiazole]
herbicidal effect in percent, LOLMU [1, 16]: 0%
herbicidal effect in percent, LOLMU [1, 17]: 80%
herbicidal effect in percent, SETVI [2, 16]: 0%
herbicidal effect in percent, SETVI [2, 17]: 80%
herbicidal effect in percent, BRSNW ([3]; 20 g of active compound/ha): 0%
herbicidal effect in percent, BRSNW ([3]; 80 g of active compound/ha): 0%
herbicidal effect in percent, ALOMY ([4]; 20 g of active compound/ha): 30%
herbicidal effect in percent, ALOMY ([4]; 80 g of active compound/ha): 90%

[O-][S@@+](Cc1c(Cl)cccc1Cl)c1ncc(Cl)s1 [Compound 185]
herbicidal effect in percent, TRZAS ([5]; 20 g of active compound/ha): 0%
herbicidal effect in percent, TRZAS ([5]; 80 g of active compound/ha): 10%
herbicidal effect in percent, ECHCG ([6]; 20 g of active compound/ha): 90%
herbicidal effect in percent, ECHCG ([6]; 80 g of active compound/ha): 100%
herbicidal effect in percent, LOLMU [1, 18]: 70%
herbicidal effect in percent, LOLMU [1, 19]: 90%
herbicidal effect in percent, SETVI [2, 18]: 70%
herbicidal effect in percent, SETVI [2, 19]: 100%
herbicidal effect in percent, VIOTR ([7]; 20 g of active compound/ha): 60%
herbicidal effect in percent, VIOTR ([7]; 80 g of active compound/ha): 70%
herbicidal activity against harmful plants [8]: very good herbicidal activity
herbicidal activity against harmful plants [9]: very good herbicidal activity

[O-][S@@+](Cc1c(F)cccc1F)c1ncc(Br)s1 [Compound 259, 5-Bromo-2-[(S)-(2,6-difluorobenzyl)sulfinyl]-1,3-thiazole]
herbicidal activity against harmful plants [8]: very good herbicidal activity
herbicidal activity against harmful plants [9]: very good herbicidal activity

[O-][S@@+](Cc1c(Cl)cccc1Cl)c1ncc(Br)s1 [Compound 270]
herbicidal activity against harmful plants [8]: very good herbicidal activity
herbicidal activity against harmful plants [9]: very good herbicidal activity

[O-][S@+](Cc1c(Cl)cccc1Cl)c1ncc(Cl)s1 [Compound 1375]
herbicidal effect in percent, TRZAS ([5]; 20 g of active compound/ha): 0%
herbicidal effect in percent, TRZAS ([5]; 80 g of active compound/ha): 0%
herbicidal effect in percent, ECHCG ([6]; 20 g of active compound/ha): 0%
herbicidal effect in percent, ECHCG ([6]; 80 g of active compound/ha): 80%
herbicidal effect in percent, LOLMU [1, 18]: 0%
herbicidal effect in percent, LOLMU [1, 19]: 60%
herbicidal effect in percent, SETVI [2, 18]: 0%
herbicidal effect in percent, SETVI [2, 19]: 20%
herbicidal effect in percent, VIOTR ([7]; 20 g of active compound/ha): 60%
herbicidal effect in percent, VIOTR ([7]; 80 g of active compound/ha): 80%
herbicidal activity against harmful plants [8]: very good herbicidal activity
herbicidal activity against harmful plants [9]: very good herbicidal activity

[O-][S@+](Cc1c(F)cccc1F)c1ncc(Br)s1 [Compound 1449, 5-bromo-2-[(R)-(2,6-difluorobenzyl)sulfinyl]-1,3-thiazole]
herbicidal activity against harmful plants [8]: very good herbicidal activity
herbicidal activity against harmful plants [9]: very good herbicidal activity

[O-][S@+](Cc1c(Cl)cccc1Cl)c1ncc(Br)s1 [Compound 1460]
herbicidal activity against harmful plants [8]: very good herbicidal activity

Cn1nc(C(F)(F)F)c(C[S@+]([O-])c2ncc(Cl)s2)c1OC(F)F [Compound 2555]
herbicidal activity against harmful plants [8]: very good herbicidal activity
herbicidal activity against harmful plants [9]: very good herbicidal activity

Cn1nc(C(F)(F)F)c(C[S@+]([O-])c2ncc(Br)s2)c1Cl [Compound 2632, 5-Bromo-2-[(S)-{[5-chloro-1-methyl-3-(trifluoromethyl)-1H-pyrazol-4-yl]methyl}sulfinyl]-1,3-thiazole]
herbicidal activity against harmful plants [8]: very good herbicidal activity
herbicidal activity against harmful plants [9]: very good herbicidal activity

Cn1nc(C(F)(F)F)c(C[S@+]([O-])c2ncc(Br)s2)c1OC(F)F [Compound 2637, 5-Bromo-2-[(S)-{[5-(difluoromethoxy)-1-methyl-3-(trifluoromethyl)-1H-pyrazol-4-yl]methyl}sulfinyl]-1,3-thiazole]
herbicidal effect in percent, LOLMU [1, 16]: 10%
herbicidal effect in percent, LOLMU [1, 17]: 100%
herbicidal effect in percent, SETVI [2, 16]: 80%
herbicidal effect in percent, SETVI [2, 17]: 90%
herbicidal effect in percent, BRSNW ([3]; 20 g of active compound/ha): 0%
herbicidal effect in percent, BRSNW ([3]; 80 g of active compound/ha): 0%
herbicidal effect in percent, ALOMY ([4]; 20 g of active compound/ha): 60%
herbicidal effect in percent, ALOMY ([4]; 80 g of active compound/ha): 90%
herbicidal activity against harmful plants [8]: very good herbicidal activity
herbicidal activity against harmful plants [9]: very good herbicidal activity

Cn1nc(C(F)(F)F)c(C[S@+]([O-])c2ncc(Br)s2)c1OCC(F)(F)F [Compound 2640]
herbicidal activity against harmful plants [8]: very good herbicidal activity
herbicidal activity in percent, ZEAMX ([10]; 20 g of active compound/ha): 0%
herbicidal activity in percent, ZEAMX ([10]; 80 g of active compound/ha): 0%
herbicidal activity in percent, AVEFA ([11]; 20 g of active compound/ha): 20%
herbicidal activity in percent, AVEFA ([11]; 80 g of active compound/ha): 90%
herbicidal activity in percent, LOLMU ([12]; 20 g of active compound/ha): 60%
herbicidal activity in percent, LOLMU ([12]; 80 g of active compound/ha): 100%
herbicidal activity in percent, SETVI ([13]; 20 g of active compound/ha): 100%
herbicidal activity in percent, SETVI ([13]; 80 g of active compound/ha): 100%
herbicidal activity in percent, POLCO ([14]; 20 g of active compound/ha): 20%
herbicidal activity in percent, POLCO ([14]; 80 g of active compound/ha): 100%
herbicidal activity in percent, STEME ([15]; 20 g of active compound/ha): 10%
herbicidal activity in percent, STEME ([15]; 80 g of active compound/ha): 90%
herbicidal activity against harmful plants [9]: very good herbicidal activity

Cn1nc(C(F)(F)F)c(C[S@+]([O-])c2ncc(I)s2)c1OC(F)F [Compound 2719]
herbicidal activity against harmful plants [8]: very good herbicidal activity
herbicidal activity against harmful plants [9]: very good herbicidal activity

Cn1nc(C(F)(F)F)c(C[S@@+]([O-])c2ncc(Cl)s2)c1OC(F)F [Compound 3643]
herbicidal activity against harmful plants [8]: very good herbicidal activity
herbicidal activity against harmful plants [9]: very good herbicidal activity

Cn1nc(C(F)(F)F)c(C[S@@+]([O-])c2ncc(Br)s2)c1Cl [Compound 3720, 5-bromo-2-[(R)-{[5-chloro-1-methyl-3-(trifluoromethyl)-1H-pyrazol-4-yl]methyl}sulfinyl]-1,3-thiazole]
herbicidal activity against harmful plants [8]: very good herbicidal activity
herbicidal activity against harmful plants [9]: very good herbicidal activity

Cn1nc(C(F)(F)F)c(C[S@@+]([O-])c2ncc(Br)s2)c1OC(F)F [Compound 3725, 5-bromo-2-[(R)-{[5-(difluoromethoxy)-1-methyl-3-(trifluoromethyl)-1H-pyrazol-4-yl]methyl}sulfinyl]-1,3-thiazole]
herbicidal effect in percent, LOLMU [1, 16]: 0%
herbicidal effect in percent, LOLMU [1, 17]: 0%
herbicidal effect in percent, SETVI [2, 16]: 0%
herbicidal effect in percent, SETVI [2, 17]: 0%
herbicidal effect in percent, BRSNW ([3]; 20 g of active compound/ha): 0%
herbicidal effect in percent, BRSNW ([3]; 80 g of active compound/ha): 0%
herbicidal effect in percent, ALOMY ([4]; 20 g of active compound/ha): 0%
herbicidal effect in percent, ALOMY ([4]; 80 g of active compound/ha): 20%
herbicidal activity against harmful plants [8]: very good herbicidal activity
herbicidal activity against harmful plants [9]: very good herbicidal activity

Cn1nc(C(F)(F)F)c(C[S@@+]([O-])c2ncc(Br)s2)c1OCC(F)(F)F [Compound 3728]
herbicidal activity against harmful plants [8]: very good herbicidal activity
herbicidal activity in percent, ZEAMX ([10]; 20 g of active compound/ha): 0%
herbicidal activity in percent, ZEAMX ([10]; 80 g of active compound/ha): 0%
herbicidal activity in percent, AVEFA ([11]; 20 g of active compound/ha): 0%
herbicidal activity in percent, AVEFA ([11]; 80 g of active compound/ha): 10%
herbicidal activity in percent, LOLMU ([12]; 20 g of active compound/ha): 0%
herbicidal activity in percent, LOLMU ([12]; 80 g of active compound/ha): 0%
herbicidal activity in percent, SETVI ([13]; 20 g of active compound/ha): 10%
herbicidal activity in percent, SETVI ([13]; 80 g of active compound/ha): 10%
herbicidal activity in percent, POLCO ([14]; 80 g of active compound/ha): 10%
herbicidal activity in percent, STEME ([15]; 20 g of active compound/ha): 0%
herbicidal activity in percent, STEME ([15]; 80 g of active compound/ha): 10%
herbicidal activity against harmful plants [9]: very good herbicidal activity
